This is an account of results in patent US6096725A, “Methods of using αGal oligosaccharides as immune system targeting agents” (Neose Technologies, Inc., priority 1997, dated 2000).

Where two headings read alike, the source gives them in different places. Bounds are passed on as bounds.

Series [1] concerns anti-αGal IgG and IgM antibodies. Put plainly: In vitro mouse laminin ELISA: soluble oligosaccharides as neutralizers of anti-αGal antibodies. Particulars: serum pre-incubated with oligosaccharide 1 hour 37° C.; result in words. It is filed as binding. The source says: In vitro laminin ELISA evaluation of αGal oligosaccharides as neutralizers of anti-αGal antibodies. Mouse laminin is a basement membrane glycoprotein that expresses 50-70 oligosaccharides terminating in Galα1-3Gal, i.e., the αGal motif (Arumugham et al., 1986, Biochem. Biophys. Aeta 883:112). In this assay, immobilization of mouse laminin on microtiter plates serves as a capture ligand for anti-αGal antibodies. […] The example provides a method by which to determine the ability of αGal oligosaccharides and pharmaceutically acceptable derivative of the invention to bind to anti-αGal antibodies and to thereby remove these antibodies from the serum, neutralize anti-αGal antibodies, and/or target anti-αGal directed complement-mediated lytic attack to specific tissue or cell types. The example also provides a method by which the effectiveness of the methods of the invention can be evaluated and dosages determined.
Sera were mixed with serial dilutions of αGal oligosaccharides (αGal-CHO) at 37° C. for 1 hour, then added to mouse laminin-coated microtiter plates and incubated for 1 hour to allow binding. The microtiter plates were coated with 20 μg/mL mouse laminin in 50 mM NaHCO3 buffer, pH 9.5 at 4° C. overnight, blocked with SuperBlock solution (Pierce) for 2 hours, and then washed 3 times with SuperBlock solution. After washing excess serum away, bound IgG and IgM was measured by adding goat anti-human IgG (or IgM) conjugated to alkaline phosphatase and incubating for 1 hour, washing, and adding substrate (pNPP).

A short description of series [2]: Pharmacokinetics after 15 minute intravenous bolus in baboons. It is filed as in vivo, baboon. Particulars: for clearance / half-life / Vd: baboon, plasma, iv, 500 umol/kg, 0.5 mMol/Kg 15 minute i.v. bolus; for Vd: read-out: Volume of Distribution. As to the method: The pharmacokinetics of the αGal trisaccharide compositions and the αGal pentasaccharide compositions were determined by delivering to one baboon by 15 minute intravenous bolus, 0.5 mMol/Kg of one oligosaccharide and 48 hours later, delivering 0.5 mmol/Kg of the second oligosaccharide, and for a second baboon, delivering the oligosaccharides according to the same procedure, but in the reverse order.
(§1) Three Baboons were outfitted with indwelling venous and arterial catheters to the femoral vessels, and held in place with the aid of a jacket. Oligosaccharides were administered through the catheter in a 15 minute continuous infusion.
(§2) The clearance is used to calculate the infusion rate needed to maintain a desired drug concentration. The half-life describes how quickly concentrations diminish with time. Mathematical formulations known in the art were applied to estimate the pharmacokinetic parameters of the αGal trisaccharide and αGal pentasaccharide. […] Compared to other drugs, the volumes of distribution of these oligosaccharides are low, less than the extravascular water volume (<400 mL/kg). The clearance is typical of compounds eliminated by GFR (glomerular filtration rate).

A short description of series [3]: Human dose and half-life estimates extrapolated from baboon pharmacokinetics. Conditions: human patient of 70 Kg. As for the experimental part: ^1 To achieve a steady state serum concentration for monovalent αGal pentasaccharide of 1 mM (i.e., 0.9 mg/mL) in a human patient of 70 Kg, it is estimated that a loading dose of 412 mg/Kg be administered in the form of a bolus or 15 minute infusion, followed by a continuous infusion of 30 g/h over a 14 day period (see Table 2 for further αGal trisaccharide and αGal pentasaccharide 2 infusion regimens).
as §2

The test system of another series is anti-αGal antibody. The experiment in a line: In vivo blood serum analysis: serum anti-αGal antibody neutralizing capacity in baboons. Particulars: monovalent oligosaccharide. On the set-up: species or system baboon.
Source text: Pharmokinetics of αGal trisaccharides and αGal pentasaccharides in baboons. This example presents a study of the pharmokinetic profile and serum anti-αGal antibody neutralizing capacity in baboons of αGal trisaccharides and αGal pentasaccharides and previews the compounds' suitability for use in the prevention of hyperacute rejection of porcine organs xenotransplanted into baboons.
as §1

The mark [4] stands for this setting: to attain 0.5 mM steady state serum concentration.
Where [5] appears, read: to attain 1.0 mM steady state serum concentration.
The mark [6] stands for this setting: to attain 2.0 mM steady state serum concentration.

For `CC(=O)N[C@H]1[C@H](O[C@H]2[C@@H](O)[C@@H](CO)O[C@@H](O[C@H]3[C@H](O)[C@@H](O)C(O)O[C@@H]3CO)[C@@H]2O)O[C@H](CO)[C@@H](O[C@@H]2O[C@H](CO)[C@H](O)[C@H](O[C@H]3O[C@H](CO)[C@H](O)[C@H](O)[C@H]3O)[C@H]2O)[C@@H]1O` (stereo partly shown) [αGal pentasaccharide, Galα1-3Galβ1-4GlcNAcβ1-3Galβ1-4Glc], in series [1], the “Inhibition of anti-αGal IgG and IgM antibody binding to immobilized mouse laminin” value was “slightly better inhibitor of both IgG and IgM binding to laminin than αGal disaccharide”. Also, in series [2] (baboon 1003), the clearance – broadly, the volume of plasma or blood freed of the substance per unit of time – amounted to 0.176 L/h/kg; the half-life – broadly, the time in which the quantity being followed falls by half – was 47.3 min; the Vd stood at 0.199 L/kg. For the same compound, in series [2] (baboon 1015), the clearance is 0.238 L/h/kg, the half-life came out at 40.2 min and the Vd worked out at 0.23 L/kg. For the same compound, in series [2] (setting [4]), the “Calculated continuous infusion, total amount” value (“Calculated continuous infusion” for short) is 1.44 Kg/14 days; the Calculated loading dose is given as 4.12 g/20 Kg baboon; the “Calculated loading dose (bolus or 15 min infusion)” value is 206 mg/kg. Also, in series [2] (setting [5]), the “Calculated continuous infusion” value is 2.88 Kg/14 days; the Calculated loading dose is 8.24 g/20 Kg baboon; the “Calculated loading dose (bolus or 15 min infusion)” value was 412 mg/kg. Further, in series [2] (setting [6]), the “Calculated continuous infusion” value is given as 5.74 Kg/14 days; the Calculated loading dose is 16.48 g/20 Kg baboon; the “Calculated loading dose (bolus or 15 min infusion)” value is 824 mg/kg. The Estimated continuous infusion in series [3] (1 mM steady state, over a 14 day period) is recorded as 30 g/h. Besides, the “Estimated loading dose (bolus or 15 minute infusion)” value in series [3] (steady state serum concentration 1 mM (0.9 mg/mL)) is 412 mg/kg. Further, in the series on anti-αGal antibody, the “Minimal serum (circulating) concentration required to inhibit hyperacute rejection / be efficacious in vivo” value is at least 1 mM.
